According to patent US20010011063A1, “Substituted 2,4-diamino-1,3,5-triazines, processes for their preparation and their use as herbicides and plant growth regulators” (priority 1999, published 2001):

Assays:
Type in all cases: in vivo
[1] = tested on: Cyperus monti, Echinochloa crus-galli and Sagitaria pygmaea; test: Action on harmful plants in rice (paddy rice conditions); conditions: poured into the dammed water, visual scoring about three weeks after application; note: test concentration or dose not given here
Text: Transplanted and sown rice and also typical rice weeds (gramineous and broad-leaved) are cultivated in closed plastic pots in a greenhouse to the three-leaf stage (Echinochloa crus-galli 1.5-leaf) under paddy rice conditions (height of water: 2-3 cm). This is followed by treatment with the compounds according to the invention. For this purpose, the formulated active compounds are suspended, dissolved or emulsified in water and applied by pouring them into the dammed water around the test plants in different dosages.

[2] = tested on: Sinapis alba, Echinochloa crus-galli, Lolium multiforum, Stellaria media, Cyperus iria, Amaranthus retroflexus, Settaria viridis and Avena sativa; test: Post-emergence effect on weeds (greenhouse pot test); conditions: application rate of 1 kg or less of active substance per hectare; treated at the three-leaf stage; scored visually after about 3 to 4 weeks vs untreated controls
Procedure: Seeds or rhizome pieces of mono- and dicotyledonous weeds are placed in sandy loam soil in plastic pots, covered with soil and grown in a greenhouse under good growth conditions. Three weeks after sowing, the test plants are treated at the three-leaf stage. The compounds according to the invention, formulated as wettable powders or emulsion concentrates, are sprayed, at various dosages, onto the green parts of the plants at an application rate of 600 to 800 l of water/ha (converted). After the test plants had remained in the greenhouse for about 3 to 4 weeks under optimum growth conditions, the effect of the preparations is scored visually by comparison with untreated controls. The agents according to the invention also have good herbicidal activity post-emergence against a broad spectrum of economically important weed grasses and broad-leaved weeds.

[3] = tested on: Stellaria media, Lolium multiflorum, Amaranthus retroflexus, Sinapis alba, Avena sativa and Settaria viridis; test: Pre-emergence effect on weeds (greenhouse pot test); conditions: application rate of 1 kg or less of active substance per hectare; visually scored after 3 to 4 weeks by comparison with untreated controls
Text: Seeds or rhizome pieces of mono and dicotyledonous weed plants are placed in sandy loam soil in plastic pots and covered with soil. The compounds according to the invention which are formulated in the form of wettable powders or emulsion concentrates are then applied to the soil cover in the form of aqueous suspensions or emulsions at an application rate of 600 to 800 l of water/ha (converted), in various dosages.

CC(C)c1nc(N)nc(N[C@@H](CCCc2ccccc2)C2CC2)n1 [Example 3-11]
very good herbicidal activity: herbicidal activity against harmful plants which are typical for rice crops [1] | herbicidal activity post-emergence against harmful plants [2] | herbicidal activity pre-emergence against harmful plants [3]

CC(C)(F)c1nc(N)nc(N[C@@H](CCCc2ccccc2)C2CC2)n1 [Example 3-12]
very good herbicidal activity: herbicidal activity against harmful plants which are typical for rice crops [1] | herbicidal activity post-emergence against harmful plants [2] | herbicidal activity pre-emergence against harmful plants [3]

CC(C)(F)c1nc(N)nc(N[C@@H](CCCc2cccc(Cl)c2)C2CC2)n1 [Example 3-18]
very good herbicidal activity: herbicidal activity against harmful plants which are typical for rice crops [1] | herbicidal activity post-emergence against harmful plants [2] | herbicidal activity pre-emergence against harmful plants [3]

CC(C)c1nc(N)nc(N[C@@H](CCCc2ccccc2)C2CCC2)n1 [Example 3-58]
very good herbicidal activity: herbicidal activity against harmful plants which are typical for rice crops [1] | herbicidal activity post-emergence against harmful plants [2] | herbicidal activity pre-emergence against harmful plants [3]

CC(C)Cc1nc(N)nc(NC(CCCc2ccccc2)C2CCC2)n1 (stereo not drawn) [Example 3-59]
very good herbicidal activity: herbicidal activity against harmful plants which are typical for rice crops [1] | herbicidal activity post-emergence against harmful plants [2] | herbicidal activity pre-emergence against harmful plants [3]

CC(C)(F)c1nc(N)nc(NC(CCCc2ccccc2)C2CCC2)n1 (stereo not drawn) [Example 3-64]
very good herbicidal activity: herbicidal activity against harmful plants which are typical for rice crops [1] | herbicidal activity post-emergence against harmful plants [2] | herbicidal activity pre-emergence against harmful plants [3]

CC(C)c1nc(N)nc(NC(CCCc2cccc(Cl)c2)C2CCC2)n1 (stereo not drawn) [Example 3-67]
very good herbicidal activity: herbicidal activity against harmful plants which are typical for rice crops [1] | herbicidal activity post-emergence against harmful plants [2] | herbicidal activity pre-emergence against harmful plants [3]

CC(C)(F)c1nc(N)nc(NC(CCCc2cccc(Cl)c2)C2CCC2)n1 (stereo not drawn) [Example 3-68]
very good herbicidal activity: herbicidal activity against harmful plants which are typical for rice crops [1] | herbicidal activity post-emergence against harmful plants [2] | herbicidal activity pre-emergence against harmful plants [3]

Cc1cccc(CCCC(Nc2nc(N)nc(C(C)C)n2)C2CCC2)c1 (stereo not drawn) [Example 3-71]
very good herbicidal activity: herbicidal activity against harmful plants which are typical for rice crops [1] | herbicidal activity post-emergence against harmful plants [2] | herbicidal activity pre-emergence against harmful plants [3]

Cc1cccc(CCCC(Nc2nc(N)nc(C(C)(C)F)n2)C2CCC2)c1 (stereo not drawn) [Example 3-72]
very good herbicidal activity: herbicidal activity against harmful plants which are typical for rice crops [1] | herbicidal activity post-emergence against harmful plants [2] | herbicidal activity pre-emergence against harmful plants [3]

COc1cccc(CCCC(Nc2nc(N)nc(C(C)C)n2)C2CCC2)c1 (stereo not drawn) [Example 3-75]
very good herbicidal activity: herbicidal activity against harmful plants which are typical for rice crops [1] | herbicidal activity post-emergence against harmful plants [2] | herbicidal activity pre-emergence against harmful plants [3]

COc1cccc(CCCC(Nc2nc(N)nc(C(C)(C)F)n2)C2CCC2)c1 (stereo not drawn) [Example 3-76]
very good herbicidal activity: herbicidal activity against harmful plants which are typical for rice crops [1] | herbicidal activity post-emergence against harmful plants [2] | herbicidal activity pre-emergence against harmful plants [3]

Nc1nc(NC(CCCc2ccc(Cl)cc2Cl)C2CC2)nc(C(F)(F)F)n1 (stereo not drawn) [Example 4-6]
very good herbicidal activity: herbicidal activity against harmful plants which are typical for rice crops [1] | herbicidal activity post-emergence against harmful plants [2] | herbicidal activity pre-emergence against harmful plants [3]

Cc1nc(N)nc(NC(CCCc2ccccc2)C2CC2)n1 (stereo not drawn) [Example 4-8]
very good herbicidal activity: herbicidal activity against harmful plants which are typical for rice crops [1] | herbicidal activity post-emergence against harmful plants [2] | herbicidal activity pre-emergence against harmful plants [3]

CCc1nc(N)nc(NC(CCCc2ccccc2)C2CC2)n1 (stereo not drawn) [Example 4-9]
very good herbicidal activity: herbicidal activity against harmful plants which are typical for rice crops [1] | herbicidal activity post-emergence against harmful plants [2] | herbicidal activity pre-emergence against harmful plants [3]

CC(C)c1nc(N)nc(NC(CCCc2ccccc2)C2CC2)n1 (stereo not drawn) [Example 4-11]
very good herbicidal activity: herbicidal activity against harmful plants which are typical for rice crops [1] | herbicidal activity post-emergence against harmful plants [2] | herbicidal activity pre-emergence against harmful plants [3]

CC(C)(F)c1nc(N)nc(N[C@H](CCCc2ccccc2)C2CC2)n1 [Example 4-12, 2-Amino-4-(1-fluoro-1-methylethyl)-6-[(1 R)4-phenyl-1-cyclopropylbutylamino]-1,3,5-triazine]
very good herbicidal activity: herbicidal activity against harmful plants which are typical for rice crops [1] | herbicidal activity post-emergence against harmful plants [2] | herbicidal activity pre-emergence against harmful plants [3]

CC(C)(F)c1nc(N)nc(NC(CCCc2cccc(Cl)c2)C2CC2)n1 (stereo not drawn) [Example 4-18]
very good herbicidal activity: herbicidal activity against harmful plants which are typical for rice crops [1] | herbicidal activity post-emergence against harmful plants [2] | herbicidal activity pre-emergence against harmful plants [3]

CC(C)c1nc(N)nc(NC(CCCc2ccccc2)C2CCC2)n1 (stereo not drawn) [Example 4-58]
very good herbicidal activity: herbicidal activity against harmful plants which are typical for rice crops [1] | herbicidal activity post-emergence against harmful plants [2] | herbicidal activity pre-emergence against harmful plants [3]

CC(C)Cc1nc(N)nc(NC(CCCc2ccccc2)C2CCC2)n1 (stereo not drawn) [Example 4-59]
very good herbicidal activity: herbicidal activity against harmful plants which are typical for rice crops [1] | herbicidal activity post-emergence against harmful plants [2] | herbicidal activity pre-emergence against harmful plants [3]

CC(C)(F)c1nc(N)nc(NC(CCCc2ccccc2)C2CCC2)n1 (stereo not drawn) [Example 4-64]
very good herbicidal activity: herbicidal activity against harmful plants which are typical for rice crops [1] | herbicidal activity post-emergence against harmful plants [2] | herbicidal activity pre-emergence against harmful plants [3]

CC(C)c1nc(N)nc(NC(CCCc2cccc(Cl)c2)C2CCC2)n1 (stereo not drawn) [Example 4-67]
very good herbicidal activity: herbicidal activity against harmful plants which are typical for rice crops [1] | herbicidal activity post-emergence against harmful plants [2] | herbicidal activity pre-emergence against harmful plants [3]

CC(C)(F)c1nc(N)nc(NC(CCCc2cccc(Cl)c2)C2CCC2)n1 (stereo not drawn) [Example 4-68]
very good herbicidal activity: herbicidal activity against harmful plants which are typical for rice crops [1] | herbicidal activity post-emergence against harmful plants [2] | herbicidal activity pre-emergence against harmful plants [3]

Cc1cccc(CCCC(Nc2nc(N)nc(C(C)C)n2)C2CCC2)c1 (stereo not drawn) [Example 4-71]
very good herbicidal activity: herbicidal activity against harmful plants which are typical for rice crops [1] | herbicidal activity post-emergence against harmful plants [2] | herbicidal activity pre-emergence against harmful plants [3]

Cc1cccc(CCCC(Nc2nc(N)nc(C(C)(C)F)n2)C2CCC2)c1 (stereo not drawn) [Example 4-72]
very good herbicidal activity: herbicidal activity against harmful plants which are typical for rice crops [1] | herbicidal activity post-emergence against harmful plants [2] | herbicidal activity pre-emergence against harmful plants [3]

COc1cccc(CCCC(Nc2nc(N)nc(C(C)C)n2)C2CCC2)c1 (stereo not drawn) [Example 4-75]
very good herbicidal activity: herbicidal activity against harmful plants which are typical for rice crops [1] | herbicidal activity post-emergence against harmful plants [2] | herbicidal activity pre-emergence against harmful plants [3]

COc1cccc(CCCC(Nc2nc(N)nc(C(C)(C)F)n2)C2CCC2)c1 (stereo not drawn) [Example 4-76]
very good herbicidal activity: herbicidal activity against harmful plants which are typical for rice crops [1] | herbicidal activity post-emergence against harmful plants [2] | herbicidal activity pre-emergence against harmful plants [3]

CC(C)Cc1nc(N)nc(NC(Cc2ccccc2)CC2CC2)n1 (stereo not drawn) [Example 5-1]
very good herbicidal activity: herbicidal activity against harmful plants which are typical for rice crops [1] | herbicidal activity post-emergence against harmful plants [2] | herbicidal activity pre-emergence against harmful plants [3]
